The results in this text go back to US20240368145A1, “METHODS FOR TREATING CANCER” (IMMUNIC AG, priority 2021, published 2024).

A value given as a limit tells only on which side of the number the result lay.

What all share (type): cell-based
Test [1] has as its system IFNγ. Nature of the test: Cytokine assay, human PBMC stimulated with PHA: IFNγ. To be noted: PHA-activated, 48 hours, read-out: IFNγ inhibition (IC50 range). On the procedure:
(§1) Peripheral blood mononuclear cells (PBMC) from healthy human donors were purified using Accuspin™ System-Histopaque-1077 (Sigma) according to the protocol recommended by the manufacturer. Purified PBMC were then washed twice with phosphate-buffered saline (PBS) and resuspended in RPMI1640 culture medium supplemented with 10% dialyzed heat inactivated fetal calf serum, 1.5 mM L-glutamine, 100 U penicillin/mL and […] streptomycin/mL (all from PAN Biotech, Aidenbach, Germany). For stimulation, PBMC were seeded at 1×10^5 cells/well, activated with 2 gg/mL phytohaemagglutinin (PHA, Sigma) and incubated with the test compounds for 48 hours. IL-17A, IL-17F and INFγ were then determined in the culture supernatant using a Luminex BioPlex system, following the manufacturer's instructions (BioRad, Munich, Germany). To determine the IC50, compounds were titrated semilogarithmically.
(§2) Cytokines were determined in the aforementioned culture supernatant using the following methods: IL-17A was measured using the human homodimer IL-17A ELISA Ready Set Go Kit from cBioscience (Frankfurt, Germany); IL-17F using the human IL-17F ELI-Pair from Holzel Diagnostica GmbH (K51n, Germany); and IFNγ using the OptEIA human IFN-g ELISA from BD Bioscience (Heidelberg, Germany), all following the manufacturer's instructions.

In test [2] the test system is full length AR (AR-FL) mRNA. Nature of the test: Androgen receptor RNA level expression (qRT-PCR) in 22Rv1: AR-FL. As to conditions: 22Rv1, 1 μM, 48 h; for mrna remaining at 1 µM: Homo sapiens, normalized to untreated control (vehicle/DMSO). As for the experimental part: (§3) The prostate cancer cell line 22Rv1 was treated for 48 h with 1 μM Example compound 1, 1/1, 1/2, 2/1, 2/2, 2/3, 2/4, 2/5, 2/6, 2/7, 2/8, 2/9 and 2/10 and the reference compounds SR2211 and XY018 (Nat. Med. 2016; 22:488). RNA was extracted using the RNA isolation kit XS (Macherey-Nagel) and following the manufacture's manual. RNA quantity was measured with the Nanodrop before reverse transcription using Superscript II (Invitrogen #100004925). For the quantitative real-time PCR with SYBR-Green (Qiagen #204074), the following primers were used: AR forward-ACATCAAGGAACTCGATCGTATCATTGC and reverse-TTGGGCACTTGCACAGAGAT, AR-V7: forward-CCATCTTGTCGTCTTCGGAAATGTTATGAAGC and reverse-TTTGAATGAGGCAAGTCAGCCTTTCTT. The qRT-PCR proceeded as follows: denaturation for 5 min 95° C.; 40 cycles of “20 sec at 95° C. and 15 sec at 60° C.” and at the end of the last cycle, the melting temperature of the products was determined by gradually increasing it from 60° C. to 99° C. CT values from all samples were normalized to two different reference (housekeeping) genes using the mean CT value of the GAPDH and YWHAZ (reference genes). Next the values are normalized to the untreated control (vehicle/DMSO).

Test [3] deals with KLK2 mRNA. Nature of the test: Expression of AR target genes (qRT-PCR) in 22Rv1: KLK2. To be noted: 22Rv1, 1 μM; for KLK2 mRNA level expression: 48 h; for mrna remaining at 1 µM: Homo sapiens, 48h, relative to vehicle control (DMSO). As for the experimental part: (§4) The prostate cancer cell line 22Rv1 was treated for 48h with 1 μM Example compound 1, 1/1, 2/1, 2/2, 2/3, 2/4, 2/5, 2/6, 2/7, 2/8, 2/9 and 2/10 and reference compounds SR2211 and XY018. RNA was extracted using the RNA isolation kit XS (Macherey-Nagel) and following the manufacture's manual. RNA quantity was measured with the Nanodrop before reverse transcription using Superscript II (Invitrogen #100004925). For the quantitative real-time PCR with SYBR-Green (Qiagen #204074), the following primers were used:
(§5) qRT-PCR was performed using SYBR-Green (Qiagen #204074) reagents in a PCR cycler (Gorbett Research) Rotor Gene RG3000 with the following program: denaturation for 5′ at 95° C.; 40 cycles of 20″ at 95° C. and 15″ at 60° C.″ and at the end of the last cycle, the melting temperature of the products was determined by gradually increasing from 60° C. to 99° C. CT values from all samples were normalized to reference (housekeeping) genes using the mean CT value of the GAPDH and YWHAZ (reference genes). Next the values are put relative to the untreated control (vehicle/DMSO).
For orientation: Quantitative PCR measures a nucleic acid by following its amplification.

Test [4] has as its system IL-17A. Nature of the test: Cytokine assay, human PBMC stimulated with PHA: IL-17A. To be noted: PHA-activated, 48 hours, read-out: IL-17A inhibition (IC50 range). On the procedure: as §1, §2
In test [5] the test system is FKBP5 mRNA. Put plainly: Expression of AR target genes (qRT-PCR) in 22Rv1: FKBP5. As to conditions: Homo sapiens; 22Rv1, 1 μM, 48h; relative to vehicle control (DMSO). On the procedure:
as §4, §5

Test [6] deals with NKX3.1 mRNA. Put plainly: Expression of AR target genes (qRT-PCR) in 22Rv1: NKX3.1. As to conditions: Homo sapiens; 22Rv1, 1 μM, 48h; relative to vehicle control (DMSO). As for the experimental part:
as §4, §5

Test [7] has as its system IL-17F. Put plainly: Cytokine assay, human PBMC stimulated with PHA: IL-17F. As to conditions: PHA-activated, 48 hours, read-out: IL-17F inhibition (IC50 range). On the procedure: as §1, §2
For test [8], the system named is AR-V7 mRNA. Put plainly: Androgen receptor RNA level expression (qRT-PCR) in 22Rv1: AR-V7. To be noted: 22Rv1, 1 μM, 48 h; for mrna remaining at 1 µM: Homo sapiens, normalized to untreated control (vehicle/DMSO). On the procedure:
as §3

By IC50 is commonly meant the concentration that inhibits the measured activity by half. Turning to `C[C@H](O)Cn1ncc(-c2onc(-c3cccc(C(=O)N4CCCC4)c3Cl)c2-c2ccncn2)c1C(F)(F)F` [2/3], the IC50 in test [1], in test [4] and in test [7] was 25 to 100 nM each time. Besides, the “full length AR (AR-FL) mRNA expression” value in test [2] was “strong reduction”. Moreover, the mrna remaining at 1 µM in test [2] stood at 43.4%; in test [3] it was 41.1%; in test [5], 24.5%; in test [6], 35.7%; in test [8], 25.5%. The “KLK2 mRNA level expression” value in test [3] is given as “strong inhibition”. For the same molecule, in test [8], the “AR-V7 mRNA expression” value is “strong reduction”.
In the case of `C[C@]1(O)C[C@@H](n2ncc(-c3onc(-c4c(F)cccc4Cl)c3-c3ccncn3)c2C(F)(F)F)C1` [2/4], the IC50 in test [1] was less than 25 nM; in test [4] it was 25 to 100 nM; in test [7], less than 25 nM. The “full length AR (AR-FL) mRNA expression” value in test [2] is “strong reduction”. The mrna remaining at 1 µM in test [2] worked out at 43.5%; in test [3], 42.6%; in test [5] it was 29.8%; in test [6], 35.9%; in test [8] it was 25.4%. For the same molecule, the “KLK2 mRNA level expression” value in test [3] is recorded as “strong inhibition”. The “AR-V7 mRNA expression” value in test [8] is given as “strong reduction”.
On to `COc1cccc(-c2noc(-c3cnn([C@H]4C[C@@](C)(O)C4)c3C(F)(F)F)c2COC2CC2)c1Cl` [2/9], for which the IC50 in test [1], in test [4] and in test [7] was less than 25 nM each time. The “full length AR (AR-FL) mRNA expression” value in test [2] is listed as “strong reduction”. The mrna remaining at 1 µM in test [2] was 49.9%; in test [3] it was 41.2%; in test [5], 31.5%; in test [6], 48.2%; in test [8], 29.3%. Further, the “AR-V7 mRNA expression” value in test [8] is “strong reduction”.
In the case of `CCOC(=O)c1c(-c2cccc(OC)c2Cl)noc1-c1cnn(CCC(C)(C)O)c1C(F)(F)F` [2/10], the IC50 in test [1], in test [4] and in test [7] was less than 25 nM throughout. Besides, in test [2], the “full length AR (AR-FL) mRNA expression” value is on record as “strong reduction”. The mrna remaining at 1 µM came out at 53.1% in test [2]; 37.9% in test [3]; 27.7% in test [5]; 32.2% in test [6]; 22.7% in test [8]. In addition, in test [3], the “KLK2 mRNA level expression” value is “strong inhibition”. In test [8], the “AR-V7 mRNA expression” value is “strong reduction”.
Turning to `C[C@H](O)Cn1ncc(-c2onc(-c3c(F)cccc3Cl)c2-c2nccs2)c1C(F)(F)F` [Example 2/1], the IC50 in test [1], in test [4] and in test [7] was less than 25 nM in each case. The “full length AR (AR-FL) mRNA expression” value in test [2] is reported as “strong reduction”. The mrna remaining at 1 µM is 42.4% in test [2]; 56.9% in test [3]; 34.4% in test [5]; 39.9% in test [6]; 22.8% in test [8]. Besides, the “AR-V7 mRNA expression” value in test [8] was “strong reduction”.
